Measured values reported in US20150246938A1, “NOVEL OLEFIN DERIVATIVE” (SHIONOGI & CO., LTD., priority 2011, published 2015).
Where two headings read alike, the source gives them in different places.

Assays:
recombinant human ACC1 = molecular target: T1, recombinant human ACC1 (Homo sapiens, UniProt Q13085); test: Measurement of inhibitory activity on human ACC1 (MALDI-TOF MS, acetyl CoA to malonyl CoA conversion); assay type: biochemical
T1 construct: a cDNA encoding human ACC1 (1-2346) was cloned from human liver cDNA library (BioChain); myc-tag (C); His-tag (C); made in house; host or cells: Sf-9 insect cells (baculovirus, FlashBACGOLD)
Source text: Recombinant baculovirus was generated using FlashBACGOLD system (Oxford Expression Technologies) according to the manufacturer's protocol. To express human ACC1, Sf-9 cells were infected with recombinant baculovirus. After infected cells were disrupted, the filtrated lysate was subjected to Ni-affinity chromatography and anion-exchange chromatography. The fractions containing human ACC1 protein were pooled as recombinant human ACC1 solution.
Recombinant human ACC1 and recombinant human ACC2, which were prepared by the method mentioned above, were preincubated with assay buffer solution (50 mM HEPES-KOH (pH 7.4), 10 mM magnesium chloride, 6-10 mM potassium citrate, 4 mM reduced form of glutathione, 1.5 mg/ml bovine serum albumin) for one hour. Then, 0.2 μL of each this invention compound solution (in DMSO) were dispensed to 384-well microplate, 5 μL of the preincubated enzyme solution and 5 μL of substrate solution (50 mM HEPES-KOH (pH 7.4), 1 mM ATP, 0.8 mM acetyl CoA and 25-50 mM potassium bicarbonate) were added to microplate. After centrifugation and shaking, the reaction mixtures were incubated in a humidified box at room temperature for 1 to 3 hours. After the incubation, the enzyme reactions were stopped by the addition of EDTA. Then, after the samples were cocrystallized with CHCA (α-cyano-4-hydroxy cinnamic acid) matrices on MALDI target plate, by using the matrix assist laser […] time-of-flight mass spectrometer (MALDI-TOF MS), samples were measured in reflector negative mode. Deprotonated ions of acetyl CoA (AcCoA) of substrate and malonyl CoA (MalCoA) of the reaction product were detected, then, the conversion rates of acetyl CoA to malonyl CoA was calculated by the intensity of [MalCoA-H]-/(Intensity of [MalCoA-H]-+Intensity of [AcCoA-H]-) using each signal strength. […] In addition, potassium citrate concentrations in assay buffer solution, potassium hydrogen carbonate concentrations in substrate solution and incubation time were adjusted by each lot of enzyme.

recombinant human ACC2 = molecular target: T2, recombinant human ACC2 (Homo sapiens, UniProt O00763); test: Measurement of inhibitory activity on human ACC2 (MALDI-TOF MS, acetyl CoA to malonyl CoA conversion); assay type: biochemical
T2 construct: a cDNA encoding human ACC2 (27-2458) was cloned from human kidney cDNA library (Clontech); His-tag (N); made in house; host or cells: Sf-9 insect cells (Bac-to-Bac baculovirus)
Description: To express human ACC2, Sf-9 cells were infected with recombinant baculovirus. After infected cells were disrupted, the filtrated lysate was subjected to Ni-affinity chromatography and anion-exchange chromatography. The fractions containing human ACC2 protein were pooled as recombinant human ACC2 solution.
Recombinant human ACC1 and recombinant human ACC2, which were prepared by the method mentioned above, were preincubated with assay buffer solution (50 mM HEPES-KOH (pH 7.4), 10 mM magnesium chloride, 6-10 mM potassium citrate, 4 mM reduced form of glutathione, 1.5 mg/ml bovine serum albumin) for one hour. Then, 0.2 μL of each this invention compound solution (in DMSO) were dispensed to 384-well microplate, 5 μL of the preincubated enzyme solution and 5 μL of substrate solution (50 mM HEPES-KOH (pH 7.4), 1 mM ATP, 0.8 mM acetyl CoA and 25-50 mM potassium bicarbonate) were added to microplate. After centrifugation and shaking, the reaction mixtures were incubated in a humidified box at room temperature for 1 to 3 hours. After the incubation, the enzyme reactions were stopped by the addition of EDTA. Then, after the samples were cocrystallized with CHCA (α-cyano-4-hydroxy cinnamic acid) matrices on MALDI target plate, by using the matrix assist laser deionization time-of-flight mass spectrometer (MALDI-TOF MS), samples were measured in reflector negative mode. Deprotonated ions of acetyl CoA (AcCoA) of substrate and malonyl CoA (MalCoA) of the reaction product were detected, then, the conversion rates of acetyl CoA to malonyl CoA was calculated by the intensity of [MalCoA-H]-/(Intensity of [MalCoA-H]-+Intensity of [AcCoA-H]-) using each signal strength. […] In addition, potassium citrate concentrations in assay buffer solution, potassium hydrogen carbonate concentrations in substrate solution and incubation time were adjusted by each lot of enzyme.

[1] = recombinant human ACC1, MALDI-TOF MS readout, read-out: 50% inhibitory concentration (1050) on human ACCT

T2 sequence (O00763 27-2458): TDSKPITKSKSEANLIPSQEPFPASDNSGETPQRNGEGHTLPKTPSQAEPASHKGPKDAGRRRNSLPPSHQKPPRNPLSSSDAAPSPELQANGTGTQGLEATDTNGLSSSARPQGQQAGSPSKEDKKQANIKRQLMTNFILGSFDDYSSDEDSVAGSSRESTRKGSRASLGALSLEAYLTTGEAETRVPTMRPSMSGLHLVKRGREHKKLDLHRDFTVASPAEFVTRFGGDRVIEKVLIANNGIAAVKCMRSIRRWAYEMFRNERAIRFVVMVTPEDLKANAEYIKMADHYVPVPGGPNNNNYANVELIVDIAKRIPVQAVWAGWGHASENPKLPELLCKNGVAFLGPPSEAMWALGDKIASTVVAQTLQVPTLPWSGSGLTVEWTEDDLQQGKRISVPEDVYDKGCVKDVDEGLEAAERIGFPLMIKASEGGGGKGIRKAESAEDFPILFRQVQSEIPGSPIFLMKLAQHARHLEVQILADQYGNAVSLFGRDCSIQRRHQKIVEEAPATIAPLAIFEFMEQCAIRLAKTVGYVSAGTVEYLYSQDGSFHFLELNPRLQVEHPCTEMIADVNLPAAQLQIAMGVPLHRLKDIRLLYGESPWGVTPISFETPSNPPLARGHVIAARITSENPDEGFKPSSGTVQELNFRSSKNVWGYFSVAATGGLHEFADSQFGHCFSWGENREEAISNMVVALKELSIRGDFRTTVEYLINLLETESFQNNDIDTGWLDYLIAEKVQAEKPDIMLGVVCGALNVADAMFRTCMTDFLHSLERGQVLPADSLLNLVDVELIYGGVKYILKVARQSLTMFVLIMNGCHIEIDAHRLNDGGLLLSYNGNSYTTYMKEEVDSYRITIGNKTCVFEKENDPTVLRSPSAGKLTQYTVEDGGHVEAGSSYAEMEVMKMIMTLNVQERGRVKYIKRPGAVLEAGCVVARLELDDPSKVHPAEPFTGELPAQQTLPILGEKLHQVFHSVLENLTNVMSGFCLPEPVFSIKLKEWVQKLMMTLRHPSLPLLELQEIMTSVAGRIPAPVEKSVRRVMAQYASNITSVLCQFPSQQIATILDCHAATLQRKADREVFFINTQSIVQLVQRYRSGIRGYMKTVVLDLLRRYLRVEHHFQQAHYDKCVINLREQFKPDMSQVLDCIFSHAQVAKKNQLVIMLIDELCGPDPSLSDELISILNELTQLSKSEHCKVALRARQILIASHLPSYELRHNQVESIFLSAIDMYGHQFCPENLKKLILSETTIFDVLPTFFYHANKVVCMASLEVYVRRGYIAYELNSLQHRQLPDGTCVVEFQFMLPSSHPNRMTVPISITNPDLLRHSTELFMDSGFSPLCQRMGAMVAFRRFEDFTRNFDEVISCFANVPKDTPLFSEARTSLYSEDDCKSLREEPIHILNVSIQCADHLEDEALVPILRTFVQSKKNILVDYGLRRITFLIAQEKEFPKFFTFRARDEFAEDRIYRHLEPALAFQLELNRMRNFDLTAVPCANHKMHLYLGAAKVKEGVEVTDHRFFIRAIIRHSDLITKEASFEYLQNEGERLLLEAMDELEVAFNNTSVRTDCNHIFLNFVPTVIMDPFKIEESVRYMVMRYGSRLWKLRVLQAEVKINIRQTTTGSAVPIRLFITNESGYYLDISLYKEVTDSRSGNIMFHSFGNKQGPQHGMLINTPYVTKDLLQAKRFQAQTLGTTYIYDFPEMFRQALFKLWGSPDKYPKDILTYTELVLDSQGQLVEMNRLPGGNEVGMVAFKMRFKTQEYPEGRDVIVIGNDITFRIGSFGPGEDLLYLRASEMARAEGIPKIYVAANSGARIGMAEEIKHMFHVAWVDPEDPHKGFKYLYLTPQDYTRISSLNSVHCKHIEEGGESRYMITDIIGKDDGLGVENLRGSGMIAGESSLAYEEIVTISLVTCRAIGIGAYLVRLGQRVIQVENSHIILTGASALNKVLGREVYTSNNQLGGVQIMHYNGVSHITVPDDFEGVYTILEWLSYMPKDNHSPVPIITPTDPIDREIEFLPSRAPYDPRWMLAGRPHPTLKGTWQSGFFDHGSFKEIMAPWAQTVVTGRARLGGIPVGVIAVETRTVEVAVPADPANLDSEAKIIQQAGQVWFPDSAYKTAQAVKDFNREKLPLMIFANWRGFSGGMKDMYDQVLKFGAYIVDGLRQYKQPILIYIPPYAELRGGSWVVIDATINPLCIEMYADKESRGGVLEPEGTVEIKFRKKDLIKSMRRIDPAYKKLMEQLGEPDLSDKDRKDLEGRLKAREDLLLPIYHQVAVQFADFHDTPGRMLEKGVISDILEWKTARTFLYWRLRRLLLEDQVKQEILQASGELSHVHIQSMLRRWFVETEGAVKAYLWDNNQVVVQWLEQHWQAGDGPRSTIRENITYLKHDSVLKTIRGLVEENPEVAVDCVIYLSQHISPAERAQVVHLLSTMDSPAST

Row | Compound | IC50 (recombinant human ACC1; [1]) [µM] | also measured
1 | C[C@@H](/C=C/c1cnc(Oc2ccc(OCC3CC3)cc2Cl)s1)NC(=O)CC(=O)OC(C)(C)C [Compound I-100] | > 100 | –
2 | COC(=O)CCCCC(=O)N[C@@H](C)/C=C/c1cnc(Oc2ccc(OCC3CC3)cc2Cl)s1 [Compound I-130] | > 100 | –
3 | C[C@@H](/C=C/c1cnc(Oc2ccc(OCC3CC3)cc2Cl)s1)NC(=O)c1ccnc(N(C)C)c1 [Compound I-160] | > 100 | –
4 | COC(=O)N[C@@H](C)/C=C/c1cnc(Oc2ccc(OCC3CC3)cc2Cl)s1 [Compound I-180] | > 100 | –
5 | CC(C)NC(=O)c1cc(C(=O)N[C@@H](C)/C=C/c2cnc(Oc3ccc(OCC4CC4)cc3Cl)s2)ccn1 [Compound I-210] | > 100 | –
6 | CNC(=O)COc1cc(C(=O)N[C@@H](C)/C=C/c2cnc(Oc3ccc(OCC4CC4)cc3Cl)s2)ccn1 [Compound I-250] | > 100 | –
7 | CCNC(=O)c1cc(C(=O)N[C@@H](C)/C=C/c2cnn(Cc3ccc(OCC4CC4)c(Cl)c3Cl)c2)ccn1 [Compound I-320] | – | IC50 (recombinant human ACC1): > 100 µM; IC50 (recombinant human ACC2; inhibition activity on human ACC2, Table 82, read-out: IC50): 0.23 µM
8 | CCCc1ccc(Oc2ccc(/C=C/[C@H](C)NC(=O)CN)cn2)c(Cl)c1 [Compound I-390] | – | IC50 (recombinant human ACC1): > 100 µM; IC50 (recombinant human ACC2): 0.54 µM
9 | CCCc1ccc(Oc2ccc(/C=C/[C@H](C)NC(C)=O)cn2)c(OC)c1 [Compound I-438] | – | IC50 (recombinant human ACC1): > 100 µM; IC50 (recombinant human ACC2; inhibition activity on human ACC2, Table 84, read-out: IC50): 0.78 µM

More lines, main results first:

Row | IC50 (recombinant human ACC1; [1]) [µM] | Compound | also measured
10 | > 100 | CC(=O)N[C@@H](C)/C=C/c1ccc(Oc2ccc(C(C)(C)C)cc2Cl)nc1 [Compound I-300] | IC50 (recombinant human ACC2): 0.018 µM
11 | > 100 | CC(=O)N[C@@H](C)/C=C/c1ccc(Oc2ccc(-c3ncns3)cc2Cl)nc1 [Compound I-420] | IC50 (recombinant human ACC2): 0.12 µM
